Assay [1] concerns the target BTK enzyme (recombinant full-length BTK, hBTK) (Homo sapiens (Human), UniProt Q06187). As to the kind of experiment: Btk enzyme activity assay, LANCE TR-FRET. In kind it is biochemical. The following applies: 50 pM hBTK, 2 μM biotin-A5-peptide, 25 μM ATP; 60 minute compound & enzyme incubation; read-out: BTK binding IC50. Here is the method: Btk Enzyme Activity Assay Methods
BTK enzymatic activity was determined with the LANCE (Lanthanide Chelate Excite) TR-FRET (Time-resolved fluorescence resonance energy transfer) assay. […] After 60 minutes incubation with detection reagents, reaction plates were read on a PerkinElmer EnVision plate reader using standard TR-FRET protocol.

In the next assay the test system is HeLa cells. The experiment in a line: [3H] Adenosine uptake assay. In kind it is cell-based. The following applies: accumulation of tritiated adenosine into HeLa cells, compound concentration range 10 μM to 0.032 nM, read-out: ADU inhibition IC50 (adenosine uptake inhibition potency). An outline of the steps: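 HeLa cells in HBSS + 5% FBS preincubated 30 min at ambient temperature with compound (0.25% DMSO), then [3H]adenosine (500 nM stock) added for 60 min. Uptake measured by scintillation proximity counting; IC50 from 4-parameter fit of counts vs log concentration.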

Read-outs that look alike come from different tables or passages of the source.

Sequence of BTK enzyme (recombinant full-length BTK, hBTK) (Q06187 whole entry): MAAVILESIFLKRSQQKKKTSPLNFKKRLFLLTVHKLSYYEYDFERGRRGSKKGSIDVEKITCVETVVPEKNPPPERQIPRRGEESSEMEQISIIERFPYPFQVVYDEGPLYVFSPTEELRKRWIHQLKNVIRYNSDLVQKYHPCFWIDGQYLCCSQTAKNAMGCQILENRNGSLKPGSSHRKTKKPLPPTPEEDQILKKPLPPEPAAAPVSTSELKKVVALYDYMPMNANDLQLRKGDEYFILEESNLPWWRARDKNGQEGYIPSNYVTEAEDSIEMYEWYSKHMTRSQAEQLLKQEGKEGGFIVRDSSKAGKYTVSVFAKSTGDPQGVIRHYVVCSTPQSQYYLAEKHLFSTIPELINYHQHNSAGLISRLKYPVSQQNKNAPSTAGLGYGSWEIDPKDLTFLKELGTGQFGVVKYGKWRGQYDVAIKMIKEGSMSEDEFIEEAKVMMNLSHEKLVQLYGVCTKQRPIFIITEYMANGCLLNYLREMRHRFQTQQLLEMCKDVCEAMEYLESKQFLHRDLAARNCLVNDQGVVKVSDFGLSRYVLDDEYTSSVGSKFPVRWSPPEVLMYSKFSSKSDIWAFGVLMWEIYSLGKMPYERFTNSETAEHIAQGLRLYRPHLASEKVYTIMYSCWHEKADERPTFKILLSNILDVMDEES

The IC50 is the point on the concentration scale where inhibition reaches its midpoint. For the molecule `C[C@@]1(C(=O)O)CCCN(c2nc(-c3ccc(C(=O)Nc4cc(C(F)(F)F)ccn4)cc3)c3c(N)nccn23)C1` [Example 41, (3R)-1-[8-amino-1-(4-{[4-(trifluoromethyl)pyridin-2-yl]carbamoyl}phenyl)imidazo[1,5-a]pyrazin-3-yl]-3-methylpiperidine-3-carboxylic acid], the IC50 in assay [1] worked out at 7.6 nM; with HeLa cells (Homo sapiens, HeLa), 4290 nM.

In the case of `Cc1cnc(N)c2c(-c3ccc(C(=O)Nc4ccccn4)cc3)nc([C@H]3CN([C@H]4CC[C@](C)(C(=O)O)CC4)CCO3)n12` [Example 199, trans-4-[(2R)-2-{8-amino-5-methyl-1-[4-(pyridin-2-ylcarbamoyl)phenyl]imidazo [1,5-a]pyrazin-3-yl}morpholin-4-yl]-1-methylcyclohexanecarboxylic acid], the IC50 in assay [1] amounted to 5.9 nM; in the assay on HeLa cells (Homo sapiens, HeLa) it was 2020 nM.

With `COc1cc(C(=O)Nc2cc(C(F)(F)F)ccn2)ccc1-c1nc(C2CCC(C)(C(=O)O)CC2)n2c(Cl)cnc(N)c12` (stereo not drawn) [Example 166, 4-[8-amino-5-chloro-1-(2-methoxy-4-{[4-(trifluoromethyl)pyridin-2-yl]carbamoyl}phenyl)imidazo[1,5-a]pyrazin-3-yl]-1-methylcyclohexane-carboxylic acid], the IC50 in assay [1] is 4.3 nM; in the assay on HeLa cells (Homo sapiens, HeLa), 10000 nM.

For `Nc1nccn2c([C@H]3CC[C@H](CC(=O)O)C3)nc(-c3ccc(C(=O)Nc4cc(C(F)(F)F)ccn4)cc3)c12` [Example 51, {(1S,3S)-3-[8-amino-1-(4-{[4-(trifluoromethyl)pyridin-2-yl]carbamoyl}phenyl)imidazo[1,5-a]pyrazin-3-yl]cyclopentyl}acetic acid], the IC50 in assay [1] came out at 0.29 nM; with HeLa cells (Homo sapiens, HeLa), 4000 nM.

In the case of `Nc1nccn2c(C34CCC(C(=O)O)(CC3)CC4)nc(-c3ccc(C(=O)Nc4cc(C5CC5)ccn4)cc3)c12` [Example 169, 4-(8-amino-1-{4-[(4-cyclopropylpyridin-2-yl)carbamoyl]phenyl}imidazo[1,5-a]pyrazin-3-yl)bicyclo[2.2.2] octane-1-carboxylic acid], the IC50 in assay [1] was determined as 0.19 nM; in the assay with HeLa cells (Homo sapiens, HeLa), 276 nM.

With `Nc1nccn2c([C@@H]3CCN[C@H](C(=O)O)C3)nc(-c3ccc(C(=O)Nc4cc(C(F)(F)F)ccn4)cc3)c12` [Example 32, (2S,4R)-4-[8-amino-1-(4-{[4-(trifluoromethyl)pyridin-2-yl]carbamoyl}phenyl)imidazo[1,5-a]pyrazin-3-yl]piperidine-2-carboxylic acid], the IC50 stood at 2.2 nM in assay [1] and 5910 nM with HeLa cells (Homo sapiens, HeLa).

Turning to `CCOc1cc(C(=O)Nc2cc(C(F)(F)F)ccn2)ccc1-c1nc([C@@H]2C[C@H]3CC[C@@H](C2)[C@H]3C(=O)O)n2ccnc(N)c12` [Example 105, (3-exo,8-syn)-3-[8-amino-1-(2-ethoxy-4-{[4-(trifluoromethyl)pyridin-2-yl]carbamoyl}phenyl)imidazo[1,5-a]pyrazin-3-yl]bicyclo[3.2.1] octane-8-carboxylic acid], the IC50 in assay [1] turned out to be 1.9 nM; in the assay on HeLa cells (Homo sapiens, HeLa), 10000 nM.

In the case of `Nc1nccn2c([C@H]3CC[C@@H](CC(=O)O)C3)nc(-c3ccc(C(=O)Nc4cc(C(F)(F)F)ccn4)cc3)c12` [Example 50, {(1R,3S)-3-[8-amino-1-(4-{[4-(trifluoromethyl)pyridin-2-yl]carbamoyl}phenyl)imidazo[1,5-a]pyrazin-3-yl]cyclopentyl}acetic acid], the 50% inhibitory concentration (IC50) in assay [1] worked out at 0.26 nM; in the assay with HeLa cells (Homo sapiens, HeLa) it was 3700 nM.

On to `C[C@]1(C(=O)O)CCCN(c2nc(-c3ccc(C(=O)Nc4cc(C(F)(F)F)ccn4)cc3)c3c(N)nccn23)C1` [Example 42, (3S)-1-[8-amino-1-(4-{[4-(trifluoromethyl)pyridin-2-yl]carbamoyl}phenyl)imidazo[1,5-a]pyrazin-3-yl]-3-methylpiperidine-3-carboxylic acid], for which the IC50 in assay [1] is 22.9 nM; in the assay with HeLa cells (Homo sapiens, HeLa), 2770 nM.

Turning to `CCOc1cc(C(=O)Nc2cc(C(F)(F)F)ccn2)c(F)cc1-c1nc(C23CCC(C(=O)O)(CC2)CC3)n2ccnc(N)c12` [Example 149, 4-[8-amino-1-(2-ethoxy-5-fluoro-4-{[4-(trifluoromethyl)pyridin-2-yl]carbamoyl}phenyl)imidazo[1,5-a]pyrazin-3-yl]bicyclo[2.2.2] octane-1-carboxylic acid], the IC50 came to 0.56 nM in assay [1] and 6870 nM with HeLa cells (Homo sapiens, HeLa).

Turning to `CC1(C(=O)O)CCC(c2nc(-c3ccc(C(=O)Nc4cc(C(F)(F)F)ccn4)cc3F)c3c(N)ncc(Cl)n23)CC1` (stereo not drawn) [Example 163, 4-[8-amino-5-chloro-1-(2-fluoro-4-{[4-(trifluoromethyl)pyridin-2-yl]carbamoyl}phenyl)imidazo[1,5-a]pyrazin-3-yl]-1-methylcyclohexane-carboxylic acid], the IC50 in assay [1] stood at 1.9 nM; with HeLa cells (Homo sapiens, HeLa) it was 6760 nM.

As to `C[C@H]1CO[C@@H](c2nc(-c3ccc(C(=O)Nc4cc(C(F)(F)F)ccn4)cc3)c3c(N)nccn23)CN1[C@H]1CC[C@@](C)(C(=O)O)CC1` [Example 192, cis-4-{(2R,5S)-2-[8-amino-1-(4-{[4-(trifluoromethyl)pyridin-2-yl]carbamoyl}phenyl)imidazo [1,5-a]pyrazin-3-yl]-5-methylmorpholin-4-yl}-1-methylcyclohexanecarboxylic acid], the IC50 in assay [1] came to 2.8 nM; with HeLa cells (Homo sapiens, HeLa), 3080 nM.

Turning to `CCOc1cc(C(=O)Nc2cc(C(F)(F)F)n(C)n2)ccc1-c1nc([C@@H]2CC[C@](C(=O)O)(C(C)C)C2)n2ccnc(N)c12` [Example 59, (1R,3R)-3-[8-amino-1-(2-ethoxy-4-{[1-methyl-5-(trifluoromethyl)-1H-pyrazol-3-yl]carbamoyl}phenyl)imidazo[1,5-a]pyrazin-3-yl]-1-(1-methylethyl) cyclopentane-carboxylic acid], the IC50 in assay [1] came to 24.1 nM; with HeLa cells (Homo sapiens, HeLa) it was 10000 nM.

As to `CCOc1cc(C(=O)Nc2cc(C(F)(F)F)ccn2)cc(F)c1-c1nc([C@@]2(C)CC[C@](C)(C(=O)O)C2)n2ccnc(N)c12` [Example 126, (1S,3S)-3-[8-amino-1-(2-ethoxy-6-fluoro-4-{[4-(trifluoromethyl)pyridin-2-yl]carbamoyl}phenyl)imidazo[1,5-a]pyrazin-3-yl]-1,3-dimethylcyclopentane carboxylic acid], the IC50 in assay [1] came to 0.47 nM; in the assay with HeLa cells (Homo sapiens, HeLa), 10000 nM.

Take `CCOc1cc(C(=O)Nc2cc(C(F)(F)F)ccn2)cc(F)c1-c1nc([C@@H]2CC[C@](C)(C(=O)O)C2(C)C)n2ccnc(N)c12` [Example 113, (1S,3R)-3-[8-amino-1-(2-ethoxy-6-fluoro-4-{[4-(trifluoromethyl)pyridin-2-yl]carbamoyl}phenyl)imidazo[1,5-a]pyrazin-3-yl]-1,2,2-trimethylcyclopentane carboxylic acid]: the IC50 in assay [1] was 0.48 nM; with HeLa cells (Homo sapiens, HeLa), 5940 nM.

Turning to `CCOc1cc(C(=O)Nc2cc(C(F)(F)F)ccn2)ccc1-c1nc([C@H]2CN(C3CCC(C)(C(=O)O)CC3)[C@@H](C)CO2)n2c(Cl)cnc(N)c12` (stereo partly drawn) [Example 189, 4-{(2R,5S)-2-[8-amino-5-chloro-1-(2-ethoxy-4-{[4-(trifluoromethyl)pyridin-2-yl]carbamoyl}phenyl)imidazo [1,5-a]pyrazin-3-yl]-5-methylmorpholin-4-yl}-1-methylcyclohexanecarboxylic acid], the IC50 stood at 1.9 nM in assay [1] and 4840 nM in the assay with HeLa cells (Homo sapiens, HeLa).

In the case of `CCOc1cc(C(=O)Nc2cc(C(F)(F)F)ccn2)ccc1-c1nc([C@H]2CC[C@@H](C(C)C)[C@@H](C(=O)O)C2)n2ccnc(N)c12` [Example 101, (1S,2S,5S)-5-[8-amino-1-(2-ethoxy-4-{[4-(trifluoromethyl)pyridin-2-yl]carbamoyl}phenyl)imidazo[1,5-a]pyrazin-3-yl]-2-(1-methylethyl) cyclohexane-carboxylic acid], the IC50 came out at 2 nM in assay [1] and 10000 nM in the assay with HeLa cells (Homo sapiens, HeLa).

`CC1(C(=O)O)CCC(N2CCO[C@@H](c3nc(-c4ccc(C(=O)Nc5cc(C(F)(F)F)ccn5)cc4)c4c(N)nccn34)C2)CC1` (stereo partly drawn) [Example 176, (R)-4-(2-(8-amino-1-(4-((4-(trifluoromethyl)pyridin-2-yl)carbamoyl)phenyl)imidazo[1,5-a]pyrazin-3-yl)morpholino)-1-methylcyclohexanecarboxylic acid]: the IC50 in assay [1] was found to be 0.49 nM; in the assay with HeLa cells (Homo sapiens, HeLa) it was 1320 nM.

On to `C[C@@]1(C(=O)O)CCN(c2nc(-c3ccc(C(=O)Nc4cc(C(F)(F)F)ccn4)cc3)c3c(N)nccn23)C1` [Example 44, (3R)-1-[8-amino-1-(4-{[4-(trifluoromethyl)pyridin-2-yl]carbamoyl}phenyl)imidazo[1,5-a]pyrazin-3-yl]-3-methylpyrrolidine-3-carboxylic acid], for which the IC50 was 1.8 nM in assay [1] and 8740 nM with HeLa cells (Homo sapiens, HeLa).

In the case of `CCOc1cc(C(=O)Nc2cc(C3CC3)ccn2)cc(F)c1-c1nc([C@@H]2CC[C@](C)(C(=O)O)C2(C)C)n2ccnc(N)c12` [Example 121, (1S,3R)-3-(8-amino-1-{4-[(4-cyclopropylpyridin-2-yl)carbamoyl]-2-ethoxy-6-fluorophenyl}imidazo [1,5-a]pyrazin-3-yl)-1,2,2-trimethylcyclopentane carboxylic acid], the IC50 in assay [1] came out at 0.37 nM; in the assay with HeLa cells (Homo sapiens, HeLa), 7320 nM.

Take `CC(C)C1(C(=O)O)CCC(C)(c2nc(-c3ccc(C(=O)Nc4cc(C(F)(F)F)ccn4)cc3)c3c(N)nccn23)C1` (stereo not drawn) [Example 144, 3-[8-amino-1-(4-{[4-(trifluoromethyl)pyridin-2-yl]carbamoyl}phenyl)imidazo[1,5-a]pyrazin-3-yl]-3-methyl-1-(1-methylethyl) cyclopentane-carboxylic acid]: the IC50 in assay [1] was 2.5 nM; with HeLa cells it was 3010 nM.

These data come from patent US10087188B2, “Benzamide imidazopyrazine Btk inhibitors” (MERCK SHARP & DOHME CORP., priority 2014, dated 2018).
